# Laboratory results taken from article PMC5613635 (Biochemistry and Biophysics Reports, 2016).
# Biological target: T1, reconstituted TmAHAS (MI + MS) (Thermotoga maritima, UniProt Q9WZ18)
# T1 sequence (Q9WZ18 1-584): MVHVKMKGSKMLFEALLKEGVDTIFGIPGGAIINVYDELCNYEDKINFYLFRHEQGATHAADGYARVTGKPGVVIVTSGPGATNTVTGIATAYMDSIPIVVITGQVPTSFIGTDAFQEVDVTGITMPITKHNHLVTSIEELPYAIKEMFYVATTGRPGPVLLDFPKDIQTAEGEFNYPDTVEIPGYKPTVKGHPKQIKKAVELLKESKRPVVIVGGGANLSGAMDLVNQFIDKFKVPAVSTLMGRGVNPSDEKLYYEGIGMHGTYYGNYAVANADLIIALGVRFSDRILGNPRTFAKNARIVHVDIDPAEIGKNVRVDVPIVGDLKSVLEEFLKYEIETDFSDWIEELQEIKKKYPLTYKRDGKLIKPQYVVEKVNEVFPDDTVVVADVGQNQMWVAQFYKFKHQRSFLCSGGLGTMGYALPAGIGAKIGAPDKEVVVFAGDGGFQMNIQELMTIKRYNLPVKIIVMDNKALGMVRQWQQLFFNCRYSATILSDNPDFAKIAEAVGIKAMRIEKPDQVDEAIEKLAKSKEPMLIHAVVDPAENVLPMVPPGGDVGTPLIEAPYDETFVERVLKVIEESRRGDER
# T1 sequence (Q9WZ19 1-171 partner): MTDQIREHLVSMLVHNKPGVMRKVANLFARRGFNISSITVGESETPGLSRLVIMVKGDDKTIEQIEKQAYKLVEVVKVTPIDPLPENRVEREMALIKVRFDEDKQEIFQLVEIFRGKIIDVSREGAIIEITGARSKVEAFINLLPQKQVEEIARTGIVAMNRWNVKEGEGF
# Experiment: acetaldehyde
# Type: biochemical
# Details: reconstituted catalytic and regulatory subunits; 80 °C, anaerobic
structure (smiles),measurement,value
CC(=O)C(=O)O [pyruvate],acetaldehyde (PDC) and acetolactate (AHAS) production from pyruvate,The reconstitution of the enzyme TmAHAS resulted in considerable and reproducible increase of both PDC
